Source: BindingDB's records for doi:10.1016/j.bmcl.2015.04.057 (Merck Research Laboratories, 2015)

Tests used:
Coagulation factor IX [1] = biological target: T1, Coagulation factor IX (Homo sapiens, UniProt P00740); experiment: (§1) Inhibition of human coagulation factor 9a using fluorescent peptide CH3SO2-D-CHG-Gly-Arg-AFC-AcoH as substrate
Coagulation factor IX [2] = biological target: T1, Coagulation factor IX; experiment: as §1; remark: listed apart in the source

T1 sequence (P00740 47-191 limits assumed): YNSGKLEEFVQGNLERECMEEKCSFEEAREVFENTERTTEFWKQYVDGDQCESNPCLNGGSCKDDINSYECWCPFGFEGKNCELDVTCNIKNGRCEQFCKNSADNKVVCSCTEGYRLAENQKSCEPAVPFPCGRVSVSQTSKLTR
T1 sequence (P00740 227-461 limits assumed): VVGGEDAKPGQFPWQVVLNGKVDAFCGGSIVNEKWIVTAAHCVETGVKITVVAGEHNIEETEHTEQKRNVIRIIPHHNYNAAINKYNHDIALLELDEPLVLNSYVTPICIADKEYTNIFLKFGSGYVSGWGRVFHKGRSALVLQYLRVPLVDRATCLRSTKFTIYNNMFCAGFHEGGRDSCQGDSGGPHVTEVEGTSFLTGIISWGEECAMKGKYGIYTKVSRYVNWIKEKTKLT

Ki (Coagulation factor IX [1]): 15 nM
Ki (Coagulation factor IX [2]): 15.4 nM
Compound: Cc1cc2nc([C@@H](CNC(=O)c3c(Cl)cc(-n4cnnc4)cc3Cl)c3ccccc3)[nH]c2cc1C
